From US10040759B2, “Substituted azetidinyl compounds as GlyT1 inhibitors” (DART NEUROSCIENCE (CAYMAN) LTD., priority 2014, dated 2018) come the findings set out here.

A value given as a limit tells only on which side of the number the result lay.

In the assay the target is T1, GlyT1 (Homo sapiens, UniProt P48067).
T1 construct: expressed in transfected cells
T1 sequence (P48067 1-706): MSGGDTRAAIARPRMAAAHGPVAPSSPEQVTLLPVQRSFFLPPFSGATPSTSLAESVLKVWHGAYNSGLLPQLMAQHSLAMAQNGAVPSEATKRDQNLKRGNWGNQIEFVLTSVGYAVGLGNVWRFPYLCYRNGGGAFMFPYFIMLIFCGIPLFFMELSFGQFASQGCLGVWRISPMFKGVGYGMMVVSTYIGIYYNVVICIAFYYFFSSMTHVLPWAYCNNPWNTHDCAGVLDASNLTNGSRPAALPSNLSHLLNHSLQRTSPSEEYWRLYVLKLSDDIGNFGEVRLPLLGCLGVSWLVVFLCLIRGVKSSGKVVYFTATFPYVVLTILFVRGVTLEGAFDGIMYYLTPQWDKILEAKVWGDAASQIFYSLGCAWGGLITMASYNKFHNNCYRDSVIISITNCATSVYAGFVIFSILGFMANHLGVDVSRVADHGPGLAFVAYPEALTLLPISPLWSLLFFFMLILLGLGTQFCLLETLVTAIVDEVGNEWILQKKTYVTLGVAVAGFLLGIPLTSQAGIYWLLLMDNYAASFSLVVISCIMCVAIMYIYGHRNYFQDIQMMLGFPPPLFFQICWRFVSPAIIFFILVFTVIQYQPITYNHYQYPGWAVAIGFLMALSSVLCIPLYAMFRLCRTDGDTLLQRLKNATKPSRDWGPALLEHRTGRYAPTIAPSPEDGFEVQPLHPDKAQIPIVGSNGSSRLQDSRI
The assay is described as follows: Glycine Transporter 1 (GlyT1) uptake assay, scintillation proximity assay of [14C]-glycine uptake. Type of assay: cell-based. The following applies: [14C]-glycine uptake; read-out: GlyT1 (pIC50) (converted). A digest of the protocol:
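IC50 values were derived by four-parameter logistic fitting of counts. The 2× compound solutions were made by 1:100 dilution into HBSS of DMSO serial dilutions.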
For orientation: SPA uses beads or plates that emit light when radiolabelled molecules are held near them.
With `COc1c(S(C)(=O)=O)ccc(O[C@@H](C)C(F)(F)F)c1C(=O)N1CC(Oc2ccc(C(F)(F)F)cn2)C1` [Example 61, 2-{[1-(3-Methanesulfonyl-2-methoxy-6-{[(2S)-1,1,1-trifluoropropan-2-yl]oxy}benzoyl)azetidin-3-yl]oxy}-5-(trifluoromethyl)pyridine], the IC50 is 100 to 1000 nM.

Consider `COc1c(S(C)(=O)=O)ccc(O[C@@H](C)C(F)(F)F)c1C(=O)N1CC(Oc2ccncc2)C1` [Example 62, 4-{[1-(3-Methanesulfonyl-2-methoxy-6-{[(2S)-1,1,1-trifluoropropan-2-yl]oxy}benzoyl)azetidin-3-yl]oxy}pyridine], for which the IC50 is 100 to 1000 nM.

For the compound `CC(Oc1ccc(C#N)c(Cl)c1C(=O)N1CC(c2ccc(C(F)(F)F)cc2)C1)C(F)(F)F` (centres unmarked) [Example 63, 2-Chloro-3-({3-[4-(trifluoromethyl)phenyl]azetidin-1-yl}carbonyl)-4-[(1,1,1-trifluoropropan-2-yl)oxy]benzonitrile], the IC50 is 100 to 1000 nM.

On to `COc1c(C#N)ccc(OC(C)C(F)(F)F)c1C(=O)N1CC(O)(c2ccc(C(F)(F)F)cc2)C1` (centres unmarked) [Example 64, 3-({3-Hydroxy-3-[4-(trifluoromethyl)phenyl]azetidin-1-yl}carbonyl)-2-methoxy-4-[(1,1,1-trifluoropropan-2-yl)oxy]benzonitrile], for which the IC50 was 100 to 1000 nM.

As to `COc1c(C#N)ccc(OC(C)C(F)(F)F)c1C(=O)N1CC(c2ccc(F)cn2)C1` (centres unmarked) [Example 65, 3-{[3-(5-Fluoropyridin-2-yl)azetidin-1-yl]carbonyl}-2-methoxy-4-[(1,1,1-trifluoropropan-2-yl)oxy]benzonitrile], the IC50 was less than 100 nM.

`CC(Oc1ccc(C#N)c(Cl)c1C(=O)N1CC(c2ccc(F)cn2)C1)C(F)(F)F` (centres unmarked) [Example 66, 2-Chloro-3-{[3-(5-fluoropyridin-2-yl)azetidin-1-yl]carbonyl}-4-[(1,1,1-trifluoropropan-2-yl)oxy]benzonitrile]: the IC50 is 100 to 1000 nM.

`COc1c(C#N)ccc(OC(C)C(F)(F)F)c1C(=O)N1CC(Oc2ccc(F)c(F)c2)C1` (centres unmarked) [Example 67, 3-{[3-(3,4-Difluorophenoxy)azetidin-1-yl]carbonyl}-2-methoxy-4-[(1,1,1-trifluoropropan-2-yl)oxy]benzonitrile]: the IC50 is 1000 to 10000 nM.

In the case of `CC(Oc1ccc(C#N)c(Cl)c1C(=O)N1CC(Oc2ccc(F)c(F)c2)C1)C(F)(F)F` (centres unmarked) [Example 68, 2-Chloro-3-{[3-(3,4-difluorophenoxy)azetidin-1-yl]carbonyl}-4-[(1,1,1-trifluoropropan-2-yl)oxy]benzonitrile], the IC50 is 100 to 1000 nM.

With `COc1c(C#N)ccc(O[C@@H](C)C(F)(F)F)c1C(=O)N1CC(F)(c2ccc(C(F)(F)F)cc2)C1` [Example 69, 3-({3-Fluoro-3-[4-(trifluoromethyl)phenyl]azetidin-1-yl}carbonyl)-2-methoxy-4-{[(2S)-1,1,1-trifluoropropan-2-yl]oxy}benzonitrile], the IC50 was 100 to 1000 nM.

Regarding `COc1c(C#N)ccc(O[C@@H](C)C(F)(F)F)c1C(=O)N1CC(F)(c2ccc(F)c(F)c2)C1` [Example 70, 3-{[3-(3,4-Difluorophenyl)-3-fluoroazetidin-1-yl]carbonyl}-2-methoxy-4-{[(2S)-1,1,1-trifluoropropan-2-yl]oxy}benzonitrile], the IC50 is 100 to 1000 nM.

With `CC(Oc1ccc(C#N)c(Cl)c1C(=O)N1CC(c2cccnc2)C1)C(F)(F)F` (centres unmarked) [Example 71, 2-Chloro-3-{[3-(pyridin-3-yl)azetidin-1-yl]carbonyl}-4-[(1,1,1-trifluoropropan-2-yl)oxy]benzonitrile], the IC50 is 100 to 1000 nM.

Turning to `CC(Oc1ccc(C#N)c(Cl)c1C(=O)N1CC(c2ccncc2)C1)C(F)(F)F` (centres unmarked) [Example 72, 2-Chloro-3-{[3-(pyridin-4-yl)azetidin-1-yl]carbonyl}-4-[(1,1,1-trifluoropropan-2-yl)oxy]benzonitrile], the IC50 is 100 to 1000 nM.

Regarding `CC(Oc1ccc(C#N)c(Cl)c1C(=O)N1CC(Oc2ccc(F)cc2)C1)C(F)(F)F` (centres unmarked) [Example 73, 2-Chloro-3-{[3-(4-fluorophenoxy)azetidin-1-yl]carbonyl}-4-[(1,1,1-trifluoropropan-2-yl)oxy]benzonitrile], the IC50 was less than 100 nM.

For `COc1c(C#N)ccc(OC(C)C(F)(F)F)c1C(=O)N1CC(Oc2ccc(F)cc2)C1` (centres unmarked) [Example 74, 3-{[3-(4-Fluorophenoxy)azetidin-1-yl]carbonyl}-2-methoxy-4-[(1,1,1-trifluoropropan-2-yl)oxy]benzonitrile], the IC50 is 100 to 1000 nM.

Regarding `COc1c(C#N)ccc(OC(C)C(F)(F)F)c1C(=O)N1CC(c2ccncc2)C1` (centres unmarked) [Example 75, 2-Methoxy-3-{[3-(pyridin-4-yl)azetidin-1-yl]carbonyl}-4-[(1,1,1-trifluoropropan-2-yl)oxy]benzonitrile], the IC50 was 1000 to 10000 nM.

Take `CC(Oc1ccc(C#N)c(Cl)c1C(=O)N1CC(Oc2ccccc2)C1)C(F)(F)F` (centres unmarked) [Example 76, 2-Chloro-3-[(3-phenoxyazetidin-1-yl)carbonyl]-4-[(1,1,1-trifluoropropan-2-yl)oxy]benzonitrile]: the IC50 was 1000 to 10000 nM.

Consider `Cc1ccc(OC2CN(C(=O)c3c(OC(C)C(F)(F)F)ccc(C#N)c3Cl)C2)cc1` (centres unmarked) [Example 77, 2-Chloro-3-{[3-(4-methylphenoxy)azetidin-1-yl]carbonyl}-4-[(1,1,1-trifluoropropan-2-yl)oxy]benzonitrile], for which the IC50 was 1000 to 10000 nM.

As to `COc1c(C#N)ccc(OC(C)C(F)(F)F)c1C(=O)N1CC(Oc2ccc(C)cc2)C1` (centres unmarked) [Example 78, 2-Methoxy-3-{[3-(4-methylphenoxy)azetidin-1-yl]carbonyl}-4-[(1,1,1-trifluoropropan-2-yl)oxy]benzonitrile], the IC50 was 1000 to 10000 nM.

`CC(Oc1ccc(C#N)c(Cl)c1C(=O)N1CC(c2ccc(C#N)cc2)C1)C(F)(F)F` (centres unmarked) [Example 79, 2-Chloro-3-{[3-(4-cyanophenyl)azetidin-1-yl]carbonyl}-4-[(1,1,1-trifluoropropan-2-yl)oxy]benzonitrile]: the IC50 was 1000 to 10000 nM.

On to `COc1ccc(C2CN(C(=O)c3c(OC(C)C(F)(F)F)ccc(C#N)c3Cl)C2)cc1` (centres unmarked) [Example 80, 2-Chloro-3-{[3-(4-methoxyphenyl)azetidin-1-yl]carbonyl}-4-[(1,1,1-trifluoropropan-2-yl)oxy]benzonitrile], for which the IC50 was 1000 to 10000 nM.

On to `CC(Oc1ccc(C#N)c(Cl)c1C(=O)N1CC(c2ccc(F)c(F)c2)C1)C(F)(F)F` (centres unmarked) [Example 81, 2-Chloro-3-{[3-(3,4-difluorophenyl)azetidin-1-yl]carbonyl}-4-[(1,1,1-trifluoropropan-2-yl)oxy]benzonitrile], for which the IC50 is 1000 to 10000 nM.

Consider `CC(Oc1ccc(C#N)c(Cl)c1C(=O)N1CC(c2cc(F)cc(F)c2)C1)C(F)(F)F` (centres unmarked) [Example 82, 2-Chloro-3-{[3-(3,5-difluorophenyl)azetidin-1-yl]carbonyl}-4-[(1,1,1-trifluoropropan-2-yl)oxy]benzonitrile], for which the IC50 was 1000 to 10000 nM.

For `CC(Oc1ccc(C#N)c(Cl)c1C(=O)N1CC(c2ccc(Cl)cc2)C1)C(F)(F)F` (centres unmarked) [Example 83, 2-Chloro-3-{[3-(4-chlorophenyl)azetidin-1-yl]carbonyl}-4-[(1,1,1-trifluoropropan-2-yl)oxy]benzonitrile], the IC50 was 100 to 1000 nM.

In the case of `CC(Oc1ccc(C#N)c(Cl)c1C(=O)N1CC(c2ccccc2C(F)(F)F)C1)C(F)(F)F` (centres unmarked) [Example 84, 2-Chloro-3-({3-[2-(trifluoromethyl)phenyl]azetidin-1-yl}carbonyl)-4-[(1,1,1-trifluoropropan-2-yl)oxy]benzonitrile], the IC50 is 100 to 1000 nM.

Turning to `CC(Oc1ccc(C#N)c(Cl)c1C(=O)N1CC(c2cccc(C(F)(F)F)c2)C1)C(F)(F)F` (centres unmarked) [Example 85, 2-Chloro-3-({3-[3-(trifluoromethyl)phenyl]azetidin-1-yl}carbonyl)-4-[(1,1,1-trifluoropropan-2-yl)oxy]benzonitrile], the IC50 is 100 to 1000 nM.

As to `CC(Oc1ccc(C#N)c(Cl)c1C(=O)N1CC(c2ccc(F)cc2)C1)C(F)(F)F` (centres unmarked) [Example 86, 2-Chloro-3-{[3-(4-fluorophenyl)azetidin-1-yl]carbonyl}-4-[(1,1,1-trifluoropropan-2-yl)oxy]benzonitrile], the IC50 is 100 to 1000 nM.

For `CC(Oc1ccc(C#N)c(Cl)c1C(=O)N1CC(c2ccccc2F)C1)C(F)(F)F` (centres unmarked) [Example 87, 2-Chloro-3-{[3-(2-fluorophenyl)azetidin-1-yl]carbonyl}-4-[(1,1,1-trifluoropropan-2-yl)oxy]benzonitrile], the IC50 was 100 to 1000 nM.

Consider `CC(Oc1ccc(C#N)c(Cl)c1C(=O)N1CC(c2ccccn2)C1)C(F)(F)F` (centres unmarked) [Example 88, 2-Chloro-3-{[3-(pyridin-2-yl)azetidin-1-yl]carbonyl}-4-[(1,1,1-trifluoropropan-2-yl)oxy]benzonitrile], for which the IC50 was 100 to 1000 nM.

For `COc1ccc(OC2CN(C(=O)c3c(OC(C)C(F)(F)F)ccc(C#N)c3Cl)C2)cc1` (centres unmarked) [Example 89, 2-Chloro-3-{[3-(4-methoxyphenoxy)azetidin-1-yl]carbonyl}-4-[(1,1,1-trifluoropropan-2-yl)oxy]benzonitrile], the IC50 was less than 100 nM.
